# Source: the NIST ThermoML archive (doi:10.1021/je400332j)
# ± gives the expanded uncertainty stated by the source.
# Tests used:
# [1] = 101.33 kPa, Liquid; for viscosity: Concentric cylinders viscometry; for mass density: Vibrating tube method
# [2] = xn = mol fraction of the nth substance listed; conditions: 101 kPa, Liquid; for viscosity: Concentric cylinders viscometry; for mass density: Vibrating tube method
compound,measurement,setting,value
CCCCCCn1cc[n+](C)c1.F[B-](F)(F)F [1-hexyl-3-methylimidazolium tetrafluoroborate],viscosity,[1]; 293.15 K,280.4 ± 23 mPa·s
same,mass density,[1]; 293.15 K,1147.5 ± 1.1 kg/m3
same,viscosity,[1]; 298.15 K,206.3 ± 17 mPa·s
same,mass density,[1]; 298.15 K,1144.1 ± 1.1 kg/m3
same,viscosity,[1]; 303.15 K,154.9 ± 13 mPa·s
same,mass density,[1]; 303.15 K,1140.6 ± 1.1 kg/m3
same,viscosity,[1]; 308.15 K,118.7 ± 9.7 mPa·s
same,mass density,[1]; 308.15 K,1137.2 ± 1 kg/m3
same,viscosity,[1]; 313.15 K,92.56 ± 7.5 mPa·s
same,mass density,[1]; 313.15 K,1133.7 ± 1 kg/m3
same,viscosity,[1]; 318.15 K,73.37 ± 5.9 mPa·s
same,mass density,[1]; 318.15 K,1130.3 ± 1 kg/m3
same,viscosity,[1]; 323.15 K,59.03 ± 4.8 mPa·s
same,mass density,[1]; 323.15 K,1127 ± 1 kg/m3
same,viscosity,[1]; 328.15 K,48.16 ± 3.9 mPa·s
same,mass density,[1]; 328.15 K,1123.6 ± 1 kg/m3
same,viscosity,[1]; 333.15 K,39.71 ± 3.2 mPa·s
same,mass density,[1]; 333.15 K,1120.2 ± 1 kg/m3
same,viscosity,[1]; 338.15 K,33.21 ± 2.7 mPa·s
same,mass density,[1]; 338.15 K,1116.8 ± 1 kg/m3
same,viscosity,[1]; 343.15 K,28.03 ± 2.3 mPa·s
same,mass density,[1]; 343.15 K,1113.4 ± 1 kg/m3
CCn1cc[n+](C)c1.F[B-](F)(F)F [1-ethyl-3-methylimidazolium tetrafluoroborate] + CCCn1cc[n+](C)c1.F[B-](F)(F)F,viscosity,"[2]; 293.15 K, x1 = 1",45.47 ± 3.7 mPa·s
same,mass density,"[2]; 293.15 K, x1 = 1",1283.9 ± 1.1 kg/m3
same,viscosity,"[2]; 298.15 K, x1 = 1",37.46 ± 3 mPa·s
same,mass density,"[2]; 298.15 K, x1 = 1",1280 ± 1.1 kg/m3
same,viscosity,"[2]; 303.15 K, x1 = 1",31.29 ± 2.5 mPa·s
same,mass density,"[2]; 303.15 K, x1 = 1",1276.2 ± 1.1 kg/m3
same,viscosity,"[2]; 308.15 K, x1 = 1",26.45 ± 2.1 mPa·s
same,mass density,"[2]; 308.15 K, x1 = 1",1272.4 ± 1.1 kg/m3
same,viscosity,"[2]; 313.15 K, x1 = 1",22.61 ± 1.8 mPa·s
same,mass density,"[2]; 313.15 K, x1 = 1",1268.6 ± 1.1 kg/m3
same,viscosity,"[2]; 318.15 K, x1 = 1",19.51 ± 1.6 mPa·s
same,mass density,"[2]; 318.15 K, x1 = 1",1264.9 ± 1.1 kg/m3
same,viscosity,"[2]; 323.15 K, x1 = 1",17 ± 1.4 mPa·s
same,mass density,"[2]; 323.15 K, x1 = 1",1261.2 ± 1.1 kg/m3
same,viscosity,"[2]; 328.15 K, x1 = 1",14.92 ± 1.2 mPa·s
same,mass density,"[2]; 328.15 K, x1 = 1",1257.4 ± 1.1 kg/m3
same,viscosity,"[2]; 333.15 K, x1 = 1",13.2 ± 1.1 mPa·s
same,mass density,"[2]; 333.15 K, x1 = 1",1253.8 ± 1.1 kg/m3
same,viscosity,"[2]; 338.15 K, x1 = 1",11.76 ± 0.94 mPa·s
same,mass density,"[2]; 338.15 K, x1 = 1",1250.1 ± 1.1 kg/m3
same,viscosity,"[2]; 343.15 K, x1 = 1",10.54 ± 0.85 mPa·s
same,mass density,"[2]; 343.15 K, x1 = 1",1246.5 ± 1.1 kg/m3
CCCn1cc[n+](C)c1.F[B-](F)(F)F [1-propyl-3-methylimidazolium tetrafluoroborate],viscosity,[1]; 293.15 K,95.44 ± 7.7 mPa·s
same,mass density,[1]; 293.15 K,1239.3 ± 1.1 kg/m3
same,viscosity,[1]; 298.15 K,74.04 ± 6 mPa·s
same,mass density,[1]; 298.15 K,1235.7 ± 1.1 kg/m3
same,viscosity,[1]; 303.15 K,58.59 ± 4.7 mPa·s
same,mass density,[1]; 303.15 K,1232 ± 1.1 kg/m3
same,viscosity,[1]; 308.15 K,47.16 ± 3.8 mPa·s
same,mass density,[1]; 308.15 K,1228.3 ± 1.1 kg/m3
same,viscosity,[1]; 313.15 K,38.56 ± 3.1 mPa·s
same,mass density,[1]; 313.15 K,1224.7 ± 1.1 kg/m3
same,viscosity,[1]; 318.15 K,31.98 ± 2.6 mPa·s
same,mass density,[1]; 318.15 K,1221 ± 1.1 kg/m3
same,viscosity,[1]; 323.15 K,26.83 ± 2.2 mPa·s
same,mass density,[1]; 323.15 K,1217.4 ± 1.1 kg/m3
same,viscosity,[1]; 328.15 K,22.77 ± 1.8 mPa·s
same,mass density,[1]; 328.15 K,1213.8 ± 1.1 kg/m3
same,viscosity,[1]; 333.15 K,19.54 ± 1.6 mPa·s
same,mass density,[1]; 333.15 K,1210.2 ± 1.1 kg/m3
same,viscosity,[1]; 338.15 K,16.92 ± 1.4 mPa·s
same,mass density,[1]; 338.15 K,1206.6 ± 1.1 kg/m3
same,viscosity,[1]; 343.15 K,14.77 ± 1.2 mPa·s
same,mass density,[1]; 343.15 K,1203 ± 1.1 kg/m3
CCn1cc[n+](C)c1.F[B-](F)(F)F [1-ethyl-3-methylimidazolium tetrafluoroborate],viscosity,[1]; 293.15 K,45.47 ± 3.7 mPa·s
same,mass density,[1]; 293.15 K,1283.9 ± 1.1 kg/m3
same,viscosity,[1]; 298.15 K,37.46 ± 3 mPa·s
same,mass density,[1]; 298.15 K,1280 ± 1.1 kg/m3
same,viscosity,[1]; 303.15 K,31.29 ± 2.5 mPa·s
same,mass density,[1]; 303.15 K,1276.2 ± 1.1 kg/m3
same,viscosity,[1]; 308.15 K,26.45 ± 2.1 mPa·s
same,mass density,[1]; 308.15 K,1272.4 ± 1.1 kg/m3
same,viscosity,[1]; 313.15 K,22.61 ± 1.8 mPa·s
same,mass density,[1]; 313.15 K,1268.6 ± 1.1 kg/m3
same,viscosity,[1]; 318.15 K,19.51 ± 1.6 mPa·s
same,mass density,[1]; 318.15 K,1264.9 ± 1.1 kg/m3
same,viscosity,[1]; 323.15 K,17 ± 1.4 mPa·s
same,mass density,[1]; 323.15 K,1261.2 ± 1.1 kg/m3
same,viscosity,[1]; 328.15 K,14.92 ± 1.2 mPa·s
same,mass density,[1]; 328.15 K,1257.4 ± 1.1 kg/m3
same,viscosity,[1]; 333.15 K,13.2 ± 1.1 mPa·s
same,mass density,[1]; 333.15 K,1253.8 ± 1.1 kg/m3
same,viscosity,[1]; 338.15 K,11.76 ± 0.94 mPa·s
same,mass density,[1]; 338.15 K,1250.1 ± 1.1 kg/m3
same,viscosity,[1]; 343.15 K,10.54 ± 0.85 mPa·s
same,mass density,[1]; 343.15 K,1246.5 ± 1.1 kg/m3
CCn1cc[n+](C)c1.F[B-](F)(F)F [1-ethyl-3-methylimidazolium tetrafluoroborate] + CCCCCCn1cc[n+](C)c1.F[B-](F)(F)F,viscosity,"[2]; 293.15 K, x1 = 1",45.47 ± 3.7 mPa·s
same,mass density,"[2]; 293.15 K, x1 = 1",1283.9 ± 1.1 kg/m3
same,viscosity,"[2]; 298.15 K, x1 = 1",37.46 ± 3 mPa·s
same,mass density,"[2]; 298.15 K, x1 = 1",1280 ± 1.1 kg/m3
same,viscosity,"[2]; 303.15 K, x1 = 1",31.29 ± 2.5 mPa·s
same,mass density,"[2]; 303.15 K, x1 = 1",1276.2 ± 1.1 kg/m3
same,viscosity,"[2]; 308.15 K, x1 = 1",26.45 ± 2.1 mPa·s
same,mass density,"[2]; 308.15 K, x1 = 1",1272.4 ± 1.1 kg/m3
same,viscosity,"[2]; 313.15 K, x1 = 1",22.61 ± 1.8 mPa·s
same,mass density,"[2]; 313.15 K, x1 = 1",1268.6 ± 1.1 kg/m3
same,viscosity,"[2]; 318.15 K, x1 = 1",19.51 ± 1.6 mPa·s
same,mass density,"[2]; 318.15 K, x1 = 1",1264.9 ± 1.1 kg/m3
same,viscosity,"[2]; 323.15 K, x1 = 1",17 ± 1.4 mPa·s
same,mass density,"[2]; 323.15 K, x1 = 1",1261.2 ± 1.1 kg/m3
same,viscosity,"[2]; 328.15 K, x1 = 1",14.92 ± 1.2 mPa·s
same,mass density,"[2]; 328.15 K, x1 = 1",1257.4 ± 1.1 kg/m3
same,viscosity,"[2]; 333.15 K, x1 = 1",13.2 ± 1.1 mPa·s
same,mass density,"[2]; 333.15 K, x1 = 1",1253.8 ± 1.1 kg/m3
same,viscosity,"[2]; 338.15 K, x1 = 1",11.76 ± 0.94 mPa·s
same,mass density,"[2]; 338.15 K, x1 = 1",1250.1 ± 1.1 kg/m3
same,viscosity,"[2]; 343.15 K, x1 = 1",10.54 ± 0.85 mPa·s
same,mass density,"[2]; 343.15 K, x1 = 1",1246.5 ± 1.1 kg/m3
CCCCCCn1cc[n+](C)c1.F[B-](F)(F)F [1-hexyl-3-methylimidazolium tetrafluoroborate] + CCCn1cc[n+](C)c1.F[B-](F)(F)F,viscosity,"[2]; 293.15 K, x2 = 0",280.4 ± 23 mPa·s
same,mass density,"[2]; 293.15 K, x2 = 0",1147.5 ± 1.1 kg/m3
same,viscosity,"[2]; 298.15 K, x2 = 0",206.3 ± 17 mPa·s
same,mass density,"[2]; 298.15 K, x2 = 0",1144.1 ± 1.1 kg/m3
same,viscosity,"[2]; 303.15 K, x2 = 0",154.9 ± 13 mPa·s
same,mass density,"[2]; 303.15 K, x2 = 0",1140.6 ± 1 kg/m3
same,viscosity,"[2]; 308.15 K, x2 = 0",118.7 ± 9.7 mPa·s
same,mass density,"[2]; 308.15 K, x2 = 0",1137.2 ± 1 kg/m3
same,viscosity,"[2]; 313.15 K, x2 = 0",92.56 ± 7.5 mPa·s
same,mass density,"[2]; 313.15 K, x2 = 0",1133.7 ± 1 kg/m3
same,viscosity,"[2]; 318.15 K, x2 = 0",73.37 ± 5.9 mPa·s
same,mass density,"[2]; 318.15 K, x2 = 0",1130.3 ± 1 kg/m3
same,viscosity,"[2]; 323.15 K, x2 = 0",59.03 ± 4.8 mPa·s
same,mass density,"[2]; 323.15 K, x2 = 0",1127 ± 1 kg/m3
same,viscosity,"[2]; 328.15 K, x2 = 0",48.16 ± 3.9 mPa·s
same,mass density,"[2]; 328.15 K, x2 = 0",1123.6 ± 1 kg/m3
same,viscosity,"[2]; 333.15 K, x2 = 0",39.71 ± 3.2 mPa·s
same,mass density,"[2]; 333.15 K, x2 = 0",1120.2 ± 1 kg/m3
same,viscosity,"[2]; 338.15 K, x2 = 0",33.21 ± 2.7 mPa·s
same,mass density,"[2]; 338.15 K, x2 = 0",1116.8 ± 1 kg/m3
same,viscosity,"[2]; 343.15 K, x2 = 0",28.03 ± 2.3 mPa·s
same,mass density,"[2]; 343.15 K, x2 = 0",1113.4 ± 1 kg/m3
